These results are taken from ChEMBL document CHEMBL3044986, “Synthesis of 1-(4-aminosulfonylphenyl)-3,5-diarylpyrazoline derivatives as potent antiinflammatory and antimicrobial agents” (2012).

The subject of test [1] is Rattus norvegicus. Briefly: Anti-inflammatory activity in Rattus norvegicus Wistar albino (rat) assessed as inhibition of carrageenan-induced paw edema at 4 mg/kg, ip administered 30 min prior to carrageenan-challenge measured at 4 hr by plethysmometric analysis relative to control. It is filed as functional. Conditions: route intraperitoneal. (In general: In the carrageenan paw model, swelling and tenderness develop within hours.)

Test [2] concerns Rattus norvegicus. Briefly: Anti-inflammatory activity in Rattus norvegicus Wistar albino (rat) assessed as inhibition of carrageenan-induced paw edema at 4 mg/kg, ip administered 30 min prior to carrageenan-challenge measured at 1 hr by plethysmometric analysis relative to control. It is filed as functional. Conditions: route intraperitoneal.
For test [3], the system named is Rattus norvegicus. Briefly: Anti-inflammatory activity in Rattus norvegicus Wistar albino (rat) assessed as inhibition of carrageenan-induced paw edema at 4 mg/kg, ip administered 30 min prior to carrageenan-challenge measured at 3 hr by plethysmometric analysis relative to control. The test is classed as functional. Conditions: route intraperitoneal.
Test [4] has as its system Rattus norvegicus. Briefly: Anti-inflammatory activity in Rattus norvegicus Wistar albino (rat) assessed as inhibition of carrageenan-induced paw edema at 4 mg/kg, ip administered 30 min prior to carrageenan-challenge measured at 2 hr by plethysmometric analysis relative to control. The test is classed as functional. Conditions: route intraperitoneal.
The subject of test [5] is Saccharomyces cerevisiae. Nature of the test: Antifungal activity against Saccharomyces cerevisiae MTCC 170 at 4 mg/ml after 24 hr by agar well diffusion assay. It is filed as functional. On the technique in general: A growth-free zone around the sample is the usual read-out of agar diffusion tests.
In test [6] the test system is Bacillus subtilis. Briefly: Antibacterial activity against Bacillus subtilis MTCC 121 after 24 hr by modified agar well diffusion assay. The conditions noted are these: MTCC 121, 24 h. The test is classed as functional.
For test [7], the system named is Rattus norvegicus. Briefly: Anti-inflammatory activity in Rattus norvegicus Wistar albino (rat) assessed as inhibition of carrageenan-induced paw edema at 50 mg/kg, po administered 30 min prior to carrageenan-challenge measured at 2 hr by plethysmometric analysis relative to control. It is filed as functional.
For test [8], the system named is Saccharomyces cerevisiae. Nature of the test: Antifungal activity against Saccharomyces cerevisiae MTCC 170 after 24 hr by modified agar well diffusion assay. The test is classed as functional.
Test [9] deals with Staphylococcus aureus. Nature of the test: Antibacterial activity against Staphylococcus aureus MTCC 96 at 4 mg/ml after 24 hr by agar well diffusion assay. The conditions noted are these: MTCC 96, 24 h, read-out: DIZ. The test is classed as functional.
Test [10] has as its system Rattus norvegicus. Nature of the test: Anti-inflammatory activity in Rattus norvegicus Wistar albino (rat) assessed as inhibition of carrageenan-induced paw edema at 50 mg/kg, po administered 30 min prior to carrageenan-challenge measured at 1 hr by plethysmometric analysis relative to control. It is filed as functional.
The subject of test [11] is Bacillus subtilis. Nature of the test: Antibacterial activity against Bacillus subtilis MTCC 121 at 4 mg/ml after 24 hr by agar well diffusion assay. It is filed as functional. Conditions: MTCC 121, 24 h, read-out: DIZ.
In test [12] the test system is Rattus norvegicus. Briefly: Anti-inflammatory activity in Rattus norvegicus Wistar albino (rat) assessed as inhibition of carrageenan-induced paw edema at 50 mg/kg, po administered 30 min prior to carrageenan-challenge measured at 4 hr by plethysmometric analysis relative to control. The test is classed as functional.
The next test has as its system Pseudomonas aeruginosa. Nature of the test: Antibacterial activity against Pseudomonas aeruginosa MTCC 741 at 4 mg/ml after 24 hr by agar well diffusion assay. It is filed as functional, organism-based.
Test [13] has as its system Candida albicans. Nature of the test: Antifungal activity against Candida albicans MTCC 227 at 4 mg/ml after 24 hr by agar well diffusion assay. It is filed as functional.
The test system of test [14] is Staphylococcus aureus. Briefly: Antibacterial activity against Staphylococcus aureus MTCC 96 after 24 hr by modified agar well diffusion assay. Conditions: MTCC 96, 24 h. The test is classed as functional.
Test [15] has as its system Rattus norvegicus. Nature of the test: Anti-inflammatory activity in Rattus norvegicus Wistar albino (rat) assessed as inhibition of carrageenan-induced paw edema at 50 mg/kg, po administered 30 min prior to carrageenan-challenge measured at 3 hr by plethysmometric analysis relative to control. The test is classed as functional.
Test [16] deals with Candida albicans. Briefly: Antifungal activity against Candida albicans MTCC 227 after 24 hr by modified agar well diffusion assay. It is filed as functional.
The test system of another test is Escherichia coli. Briefly: Antibacterial activity against Escherichia coli MTCC 1652 at 4 mg/ml after 24 hr by agar well diffusion assay. The test is classed as functional, organism-based.

Values after ≈ are worked out from the molar mass of the structure shown. Active and inactive are the calls of the source. The calls are words filed in the database; no cut-off is given here. Where only a bound is given, the exact number is not on record here.

As for `COc1ccc2c(c1)c(CC(=O)O)c(C)n2C(=O)c1ccc(Cl)cc1` [INDOMETHACIN], the inhibition in vivo at 4 mg/kg with Rattus norvegicus [1] worked out at 74.7%; in the test with Rattus norvegicus [2], 69.6%; with Rattus norvegicus [3] it was 77.2%; with Rattus norvegicus [4], 81.9%.
In the case of `COc1cc(OC)cc(C2CC(c3ccc(OC)cc3O)=NN2c2ccc(S(N)(=O)=O)cc2)c1` (stereo not given), the “diameter of the inhibition zone (DIZ)” value in the test on Saccharomyces cerevisiae [5] and in the test on Candida albicans [13] was “inactive” in each case. For the same compound, the MIC against Bacillus subtilis [6] and against Staphylococcus aureus [14] was 256 µg/mL (≈ 529 µM) each time. The inhibition in vivo at 50 mg/kg came out at 57.5% with Rattus norvegicus [7], 31.9% in the test with Rattus norvegicus [10], 50% in the test on Rattus norvegicus [12] and 62.8% in the test with Rattus norvegicus [15]. The MIC entry with Saccharomyces cerevisiae [8] and in the test with Candida albicans [16] was “inactive” each time. The zone of inhibition at 4000 µg/mL in the test with Staphylococcus aureus [9] was 13.3 mm; in the test with Bacillus subtilis [11], 14.3 mm. For the same compound, the result in the test with Pseudomonas aeruginosa and in the test with Escherichia coli was inactive.
On to `COc1cccc(C2CC(c3ccc(F)cc3)=NN2c2ccc(S(N)(=O)=O)cc2)c1OC` (stereo not given), for which the zone of inhibition at 4000 µg/mL came to 15.6 mm in the test with Saccharomyces cerevisiae [5] (MTCC 170, 24 h, read-out: DIZ); 17.6 mm with Staphylococcus aureus [9]; 18.3 mm in the test with Bacillus subtilis [11]; 13.6 mm in the test on Candida albicans [13] (MTCC 227, 24 h, read-out: DIZ). Also, the MIC in the test with Bacillus subtilis [6] worked out at 64 µg/mL (≈ 141 µM); with Saccharomyces cerevisiae [8] (MTCC 170, 24 h) it was 64 µg/mL (≈ 141 µM); with Staphylococcus aureus [14], 128 µg/mL (≈ 281 µM); in the test on Candida albicans [16] (MTCC 227, 24 h), 128 µg/mL (≈ 281 µM). Besides, the inhibition in vivo at 50 mg/kg is 40.1% with Rattus norvegicus [7], 59.4% in the test on Rattus norvegicus [10], 51.5% in the test on Rattus norvegicus [12] and 53.8% in the test with Rattus norvegicus [15]. Besides, the result in the test on Pseudomonas aeruginosa and in the test with Escherichia coli was inactive.
As for `COc1ccc(C2CC(c3ccc(F)cc3)=NN2c2ccc(S(N)(=O)=O)cc2)c(OC)c1` (stereo not given), the “diameter of the inhibition zone (DIZ)” value in the test on Saccharomyces cerevisiae [5] and in the test with Candida albicans [13] was “inactive” throughout. Further, the minimal inhibitory concentration (MIC) against Bacillus subtilis [6] and in the test on Staphylococcus aureus [14] was 128 µg/mL (≈ 281 µM) each time. Also, the inhibition in vivo at 50 mg/kg was found to be 35.4% in the test with Rattus norvegicus [7], 63.7% in the test on Rattus norvegicus [10], 47.9% in the test on Rattus norvegicus [12] and 47.7% in the test on Rattus norvegicus [15]. In addition, the MIC result with Saccharomyces cerevisiae [8] and in the test with Candida albicans [16] was “inactive” throughout. Moreover, the zone of inhibition at 4000 µg/mL came to 15.3 mm with Staphylococcus aureus [9] and 16.3 mm in the test with Bacillus subtilis [11]. Moreover, the result in the test on Pseudomonas aeruginosa and in the test on Escherichia coli was inactive.
For `COc1cc(OC)cc(C2CC(c3ccc(F)cc3)=NN2c2ccc(S(N)(=O)=O)cc2)c1` (stereo not given), the “diameter of the inhibition zone (DIZ)” value in the test on Saccharomyces cerevisiae [5] and in the test with Candida albicans [13] was “inactive” each time. The minimal inhibitory concentration (MIC) in the test on Bacillus subtilis [6] was 256 µg/mL (≈ 562 µM); in the test with Staphylococcus aureus [14], > 256 µg/mL. The inhibition in vivo at 50 mg/kg in the test with Rattus norvegicus [7] came out at 33.1%; in the test with Rattus norvegicus [10], 49.3%; with Rattus norvegicus [12], 50%; with Rattus norvegicus [15], 51.1%. The MIC result with Saccharomyces cerevisiae [8] and in the test on Candida albicans [16] was “inactive” throughout. The zone of inhibition at 4000 µg/mL in the test on Staphylococcus aureus [9] was determined as 12.6 mm; in the test on Bacillus subtilis [11], 13.6 mm. For the same compound, the result with Pseudomonas aeruginosa and in the test on Escherichia coli was inactive.

The term inhibition in vivo denotes the share of the control response that was lost under treatment. A word on the MIC: it is the lowest concentration that inhibits growth of the organism.
